According to patent US9981960B2, “Pyrrolidine compound and application as melanocortin receptor agonist” (MITSUBISHI TANABE PHARMA CORPORATION, priority 2014, dated 2018):

Molecular target: T1, Human MC1R (Homo sapiens, UniProt Q01726)
T1 construct: endogenous in cells; host or cells: human melanoma cell line HBL
Experiment: MCR agonist measurement (cAMP measurement), human MC1R agonist activity in human melanoma cell line HBL
Assay type: cell-based
Settings: HBL cells; for EC50: 37° C. for 30 minutes, intracellular cAMP by fluorescence method; for Human MC1R IA %: Intrinsic Activity, vehicle cAMP = 0%, αMSH at 10^-6 M = 100%
Method: (1) Method for Culturing Cells
Human MC1R agonist activity measurement was carried out by using human melanoma cell line HBL. Culture of HBL: F-10 Nutrient Mixture containing 10% FCS and Penicillin-streptomycin was used in the culture.
(2) cAMP Assay and Data Calculation
Each compound solution having each concentration was mixed with cAMP assay buffer (HBSS (Hank's Balanced Salt Solution) containing 10 mM HEPES and 0.1% BSA), and dispensed into 96 well plate. HBL was suspended in cAMP assay buffer containing 0.5 mM IBMX so that the concentrate became 5×10^4/mL, dispensed into the above 96 well plate, then mixed, left to stand at 37° C. for 30 minutes, and then the intracellular […] concentration was measured by fluorescence method using Envision (ex. 320 nm, em. 590 nm and 665 nm).

T1 sequence (Q01726 whole entry): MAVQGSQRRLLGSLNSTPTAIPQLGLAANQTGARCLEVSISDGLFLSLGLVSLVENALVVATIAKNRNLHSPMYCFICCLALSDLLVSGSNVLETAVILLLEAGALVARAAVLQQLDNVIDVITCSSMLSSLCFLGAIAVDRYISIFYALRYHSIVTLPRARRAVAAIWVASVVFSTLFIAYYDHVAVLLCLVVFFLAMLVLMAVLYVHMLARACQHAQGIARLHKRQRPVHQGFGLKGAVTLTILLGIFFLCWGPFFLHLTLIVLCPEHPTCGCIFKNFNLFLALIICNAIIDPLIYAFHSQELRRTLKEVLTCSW

Row | Structure (SMILES) | EC50 | Human MC1R IA %
1 | COc1ccc([C@@H]2CN(C(C)(C)C)C[C@@]2(F)C(=O)N2C[C@H](C(=O)O)[C@@H](c3ccc(C(F)(F)F)cc3N3CCC(C(=O)OC(C)(C)C)CC3)C2)cc1 [Example 223, (3R,4S)-4-{2-[4-(tert-butoxycarbonyl)piperidin-1-yl]-4-(trifluoromethyl)phenyl}-1-{[(3R,4R)-1-tert-butyl-3-fluoro-4-(4-methoxyphenyl)pyrrolidin-3-yl]carbonyl}pyrrolidin-3-carboxylic acid] | 90 nM | 71%
2 | COc1ccc([C@@H]2CN(C(C)(C)C)C[C@@]2(F)C(=O)N2C[C@H](C(=O)N(C)C)[C@@H](c3ccc(C(F)(F)F)cc3N3CCC(C(=O)O)CC3)C2)cc1.Cl.Cl [Example 226, 1-{2-[(3S,4R)-1-{[(3R,4R)-1-tert-butyl-3-fluoro-4-(4-methoxyphenyl)pyrrolidin-3-yl]carbonyl}-4-(dimethylcarbamoyl)pyrrolidin-3-yl]-5-(trifluoromethyl)phenyl}piperidine-4-carboxylic acid dihydrochloride] | 47 nM | 132%
3 | COc1ccc([C@@H]2CN(C(C)(C)C)C[C@@]2(F)C(=O)N2C[C@H](c3ccc(C(F)(F)F)cc3N3CCC(C(=O)O)CC3)[C@@H](C#N)C2)cc1.Cl.Cl [Example 227, 1-{2-[(3S,4R)-1-{[(3R,4R)-1-tert-butyl-3-fluoro-4-(4-methoxyphenyl)pyrrolidin-3-yl]carbonyl}-4-cyanopyrrolidin-3-yl]-5-(trifluoromethyl)phenyl}piperidine-4-carboxylic acid dihydrochloride] | 85 nM | 114%
4 | COc1ccc([C@@H]2CN(C3CCCC3)C[C@@]2(F)C(=O)N2C[C@H](c3ccc(C(F)(F)F)cc3N3CCC(C(=O)O)CC3)[C@@H](C(C)(C)O)C2)cc1.Cl.Cl [Example 228, 1-{2-[(3S,4R)-1-{[(3R,4R)-1-cyclopentyl-3-fluoro-4-(4-methoxyphenyl)pyrrolidin-3-yl]carbonyl}-4-(2-hydroxypropan-2-yl)pyrrolidin-3-yl]-5-(trifluoromethyl)phenyl}piperidine-4-carboxylic acid dihydrochloride] | 11 nM | 77%
5 | CNC(=O)C1CCN(c2cc(C(F)(F)F)ccc2C2CCN(C(=O)[C@]3(F)CN(C(C)(C)C)C[C@H]3c3ccc(OC)cc3)CC2)CC1.Cl.Cl [Example 231, 1-[2-(1-{[(3R,4R)-1-tert-butyl-3-fluoro-4-(4-methoxyphenyl)pyrrolidin-3-yl]carbonyl}piperidin-4-yl)-5-(trifluoromethyl)phenyl]-N-methylpiperidine-4-carboxamide dihydrochloride] | 11 nM | 82%
6 | COc1ccc([C@@H]2CN(C(C)(C)C)C[C@@]2(F)C(=O)N2CCC(c3ccc(C(F)(F)F)cc3N3CCC(C(=O)N4CCCC4)CC3)CC2)cc1 [Example 235] | 79 nM | 124%

Next, values leading:

Row | EC50 | Human MC1R IA % | Structure (SMILES)
7 | 11 nM | 109% | COc1ccc([C@@H]2CN(C(C)(C)C)C[C@@]2(F)C(=O)N2C[C@H](CO)[C@@H](c3ccc(C(F)(F)F)cc3N3CCC(C(=O)O)CC3)C2)cc1.Cl.Cl [Example 224, 1-{2-[(3S,4R)-1-{[(3R,4R)-1-tert-butyl-3-fluoro-4-(4-methoxyphenyl)pyrrolidin-3-yl]carbonyl}-4-(hydroxymethyl)pyrrolidin-3-yl]-5-(trifluoromethyl)phenyl}piperidine-4-carboxylic acid dihydrochloride]
8 | 10 nM | 95% | COc1ccc([C@@H]2CN(C(C)(C)C)C[C@@]2(F)C(=O)N2CCC(c3ccc(C(F)(F)F)cc3N3CCC(C(N)=O)CC3)CC2)cc1 [Example 232]
9 | 7.3 nM | 105% | COc1ccc([C@@H]2CN(C(C)(C)C)C[C@@]2(F)C(=O)N2CCC(c3ccc(C(F)(F)F)cc3N3CCC(C(=O)N(C)C)CC3)CC2)cc1 [Example 234]
10 | 5.1 nM | 92% | COC[C@H]1CN(C(=O)[C@]2(F)CN(C3CCCC3)C[C@H]2c2ccc(OC)cc2)C[C@@H]1c1ccc(C(F)(F)F)cc1N1CCC(C(=O)N(C)C)CC1 [Example 248]
